The record followed here is patent publication US5550110A, “Endothelin Antagonists II” (Warner-Lambert Company, priority 1994, dated 1996).

Assay [1] concerns endothelin receptor (ETA), rabbit renal artery vascular smooth muscle cells. Nature of the assay: Endothelin Receptor Binding Assay-A (ERBA-A), intact cell binding of [125I]-ET-1. To be noted: [125I]-ET-1 25 pM. How it is done: The compounds of Formula I are valuable antagonists of endothelin. […] Thus, the compounds of Formula I were tested for their ability to inhibit [^125 I]-ET-1([^125 I]-Endothelin-1) binding in a receptor assay according to the following procedures: Endothelin Receptor Binding Assay-A (ERBA-A) Intact Cell Binding of [^125 I]-ET-1 The cells used were rabbit renal artery vascular smooth muscle cells grown in a 48-well dish (1 cm^2) (confluent cells). The assay buffer was a medium 199 containing Hanks salts and 25 mM Hepes buffer (Gibco 380-2350AJ), supplemented with penicillin/streptomycin/fungizone (0.5%) and bovine serum albumin (1 mg/mL). Amersham radioiodinated endothelin-1 [^125 I]-ET-1 was used at final concentration of 20,000 cpm/0.25 mL (25 pM). […] Second, remove the assay buffers, place the dish on ice, and add 150 μL of cold assay buffer described above to each well. Third, add […] each of cold [^125 I]-ET-1 and competing ligand to the solution (at the same time if possible). Next, place dish in a 37° C. water bath for about 2 hours and gently agitate the dish every 15 minutes. Discard the radioactive incubation mixture in the sink and wash wells 3 times with 1 mL of cold phosphate buffered saline. Last, add […] of 0.25 molar sodium hydroxide, agitate for 1 hour on a rotator, and then transfer the sodium hydroxide extract to gamma counting tubes and count the radioactivity.

Assay [2] deals with T1, endothelin receptor (ETB), rat cerebellar membranes (Rattus norvegicus, UniProt P21451).
T1 construct: thaw one aliquot of frozen rat cerebellar membranes (2 mg protein in 0.5 mL); from tissue; host or cells: rat cerebellum (membranes)
T1 sequence (P21451 27-442): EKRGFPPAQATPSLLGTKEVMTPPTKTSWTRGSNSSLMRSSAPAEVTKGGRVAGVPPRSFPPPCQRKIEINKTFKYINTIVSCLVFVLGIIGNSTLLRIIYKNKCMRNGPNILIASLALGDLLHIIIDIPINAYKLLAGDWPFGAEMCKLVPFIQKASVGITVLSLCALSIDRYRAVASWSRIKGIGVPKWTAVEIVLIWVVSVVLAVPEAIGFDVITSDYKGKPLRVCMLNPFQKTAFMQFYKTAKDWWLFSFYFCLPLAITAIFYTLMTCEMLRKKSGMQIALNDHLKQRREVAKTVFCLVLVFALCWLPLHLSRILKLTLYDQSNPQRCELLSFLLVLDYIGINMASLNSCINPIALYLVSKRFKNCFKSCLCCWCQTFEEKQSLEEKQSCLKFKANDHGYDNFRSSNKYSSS
Kind of assay: Endothelin Receptor Binding Assay-B (ERBA-B), [125I]-ET-1 binding in rat cerebellar membranes. To be noted: [125I]-ET-1 25 pM, read-out: ERRA-B IC50. The protocol: Endothelin Receptor Binding Assay-B (ERBA-B) [^125 I]-ET-1 Binding in Rat Cerebellar Membranes
The tissue is made up of 20 mM tris(hydroxymethyl)aminomethane hydrochloride (Trizma) buffer, 2 mM ethylenediaminetetra acetate, 100 μM phenylmethylsulfonyl fluoride.
First, thaw one aliquot of frozen rat cerebellar membranes (2 mg protein in 0.5 mL). Next, add 0.5 mL membrane aliquot to 4.5 mL cold tissue buffer, polytron at 7,500 revolutions per minute for 10 seconds. Finally, dilute tissue suspension 1/100 (0.1 mL suspension+9.9 mL tissue buffer), polytron again, and place ice.
Medium 199 with Hank's salts plus 25 mM Hepes+1 mg/mL bovine serum albumin.
Amersham [^125 I]-ET-1 (aliquots of 2×10^6 cpm per […] aliquot of [^125 I]-ET-1 with 5.2 mL dilution buffer, place on ice until use (final concentration will be 20,000 cpm per tube, or 25 pM).
Add 50 μL each of cold [^125 ]-ET-1 and competing ligand to tubes on ice. Mix in 150 μL of tissue to each tube, vortex briefly, then tap to force all liquids to bottom (total assay volume=250 μL). Then place the tubes in a 37° C. water bath for 2 hours.
Add 2.5 mL cold wash buffer (50 mM Trizma buffer) to each tube, filter, and then wash tube with additional 2.5 mL wash buffer and add to filter. Finally, wash filters with an additional 2.5 mL of cold wash buffer.
Count filters for radioactivity in gamma counter.

In assay [3] the test system is endothelin receptor, cultured rabbit renal artery vascular smooth muscle cells. Nature of the assay: Inhibition of ET-1 stimulated arachidonic acid release (AAR-A). It is filed as cell-based. To be noted: ET-1 0.3 nM. How it is done: (§1) In Vitro Inhibition of ET-1 Stimulated Arachidonic Acid Release in Cultured Rabbit Vascular Smooth Muscle Cells (AAR-A) or CHO Cells Expressing Rat Recombinant ETB Receptor (AAR-B) by Compounds of Formula I
(§2) Antagonist activity is measured by the ability of added compounds to reduce endothelin-stimulated arachidonic acid release in cultured vascular smooth muscle cells as arachidonic acid release (AAR). [^3 H] Arachidonic Acid Loading Media (LM) is DME/F12+0.5% fetal calf serum (FCS)×0.25 mCi/mL [^3 H] arachidonic acid (Amersham). Confluent monolayers of cultured rabbit renal artery vascular smooth muscle cells (AAR-A) or CHO cells expressing rat recombinant ETB receptor (AAR-B) were incubated in 0.5 mL of the LM over 18 hours, at 37° C., in 5% CO2. The LM was aspirated and the cells were washed once with the assay buffer (Hank's balanced salt solution [BSS]+10 mM HEPES+fatty acid-free BSA (1 mg/mL)), and incubated for 5 minutes with 1 mL of the prewarmed assay buffer. This solution was aspirated, followed by an additional 1 mL of prewarmed assay buffer, and further incubated for another 5 minutes. A final 5-minute incubation was carried out in a similar manner. The same procedure was repeated with the inclusion of 10 μL of the test compound (1 nM to 1 μM) and 10 μL ET-1 (0.3 nM) and the incubation was extended for 30 minutes. This solution was then collected, […] of scintillation cocktail was added, and the amount of [^3 H] arachidonic acid was determined in a liquid scintillation counter.

Assay [4] deals with T2, rat recombinant ETB receptor (CHO cells) (Rattus norvegicus, UniProt P21451).
T2 construct: expressed in transfected cells; host or cells: CHO cells
T2 sequence (P21451 27-442): T1 sequence (P21451 27-442)
Kind of assay: Inhibition of ET-1 stimulated arachidonic acid release (AAR-B). It is filed as cell-based. The following applies: ET-1 0.3 nM. How it is done: as §1, §2

Square brackets hold non-standard residues; d marks the D form. Peptide text beside a SMILES is read from it. * marks the point of attachment. dGly(5-dibenzosuberyl) = N[C@@H](C(=O)O)C1c2ccccc2CCc2ccccc21; For = O=C*

The term IC50 denotes the concentration that inhibits the measured activity by half.

Take `CC[C@H](C)[C@H](NC(=O)[C@H](CC(=O)O)NC(=O)[C@H](CC(C)C)NC(=O)[C@@H](N)C1c2ccccc2CCc2ccccc21)C(=O)N[C@H](C(=O)N[C@@H](Cc1c[nH]c2ccccc12)C(=O)O)[C@@H](C)CC` [Example 3, L-Bhg-Leu-Asp-Ile-Ile-Trp] (HELM PEPTIDE1{[N[C@H](C(=O)[*:2])C1c2ccccc2CCc2ccccc21].L.D.I.I.W}$$$$V2.0): the results for the IC50 in assay [1], in assay [2] and in assay [3] were 2500 nM, 3000 nM and 2360 nM, respectively.
`CC[C@H](C)[C@H](NC(=O)[C@H](CC(=O)O)NC(=O)[C@H](CC(C)C)NC(=O)[C@@H](NC(C)=O)C1c2ccccc2CCc2ccccc21)C(=O)N[C@H](C(=O)N[C@@H](Cc1c[nH]c2ccccc12)C(=O)O)[C@@H](C)CC` [Example 4, Ac-L-Bhg-Leu-Asp-Ile-Ile-Trp] (HELM PEPTIDE1{[ac].[O=C([C@@H](N[*:1])C1c2ccccc2CCc2ccccc21)[*:2]].L.D.I.I.W}$$$$V2.0): the IC50 in assay [2] stood at 710 nM.
As to `CC[C@H](C)[C@H](NC(=O)[C@H](CC(=O)O)NC(=O)[C@H](CC(C)C)NC(=O)[C@H](NC(C)=O)C1c2ccccc2Sc2ccccc21)C(=O)N[C@H](C(=O)N[C@@H](Cc1c[nH]c2ccccc12)C(=O)O)[C@@H](C)CC` [Example 5, Ac-D-Txg-Leu-Asp-Ile-Ile-Trp] (HELM PEPTIDE1{[ac].[O=C([C@H](N[*:1])C1c2ccccc2Sc2ccccc21)[*:2]].L.D.I.I.W}$$$$V2.0), the IC50 in assay [1] is 18 nM; in assay [2], 180 nM; in assay [3] it was 50 nM; in assay [4] it was 62 nM.
With `CC[C@H](C)[C@H](NC(=O)[C@H](CC(=O)O)NC(=O)[C@H](CC(C)C)NC(=O)[C@@H](NC(C)=O)C1c2ccccc2Oc2ccccc21)C(=O)N[C@H](C(=O)N[C@@H](Cc1c[nH]c2ccccc12)C(=O)O)[C@@H](C)CC` [Example 9, Ac-L-Oxn-Leu-Asp-Ile-Ile-Trp] (HELM PEPTIDE1{[ac].[O=C([C@@H](N[*:1])C1c2ccccc2Oc2ccccc21)[*:2]].L.D.I.I.W}$$$$V2.0), the IC50 was determined as 50 nM in assay [1] and 930 nM in assay [2].
Taken in the same sequence, the figures for `CC[C@H](C)[C@H](NC(=O)[C@H](CC(=O)O)NC(=O)[C@H](CC(C)C)NC(=O)[C@H](NC(C)=O)C1c2ccccc2Oc2ccccc21)C(=O)N[C@H](C(=O)N[C@@H](Cc1c[nH]c2ccccc12)C(=O)O)[C@@H](C)CC` [Example 10, Ac-D-Oxn-Leu-Asp-Ile-Ile-Trp] (HELM PEPTIDE1{[ac].[O=C([C@H](N[*:1])C1c2ccccc2Oc2ccccc21)[*:2]].L.D.I.I.W}$$$$V2.0) were 120 nM and 550 nM.
Taken in the same sequence, the figures for `CC[C@H](C)[C@H](NC(=O)[C@H](CC(=O)O)NC(=O)[C@H](CC(C)C)NC(=O)[C@@H](N)C1c2ccccc2Sc2ccccc21)C(=O)N[C@H](C(=O)N[C@@H](Cc1c[nH]c2ccccc12)C(=O)O)[C@@H](C)CC` [Example 11, L-Txg-Leu-Asp-Ile-Ile-Trp] (HELM PEPTIDE1{[N[C@H](C(=O)[*:2])C1c2ccccc2Sc2ccccc21].L.D.I.I.W}$$$$V2.0) were 4500 nM and 2100 nM.
Taken in the same sequence, the figures for `CC[C@H](C)[C@H](NC(=O)[C@H](CC(=O)O)NC(=O)[C@H](CC(C)C)NC(=O)[C@@H](NC(C)=O)C1c2ccccc2Sc2ccccc21)C(=O)N[C@H](C(=O)N[C@@H](Cc1c[nH]c2ccccc12)C(=O)O)[C@@H](C)CC` [Example 12, Ac-L-Txg-Leu-Asp-Ile-Ile-Trp] (HELM PEPTIDE1{[ac].[O=C([C@@H](N[*:1])C1c2ccccc2Sc2ccccc21)[*:2]].L.D.I.I.W}$$$$V2.0) were 1500 nM and 2100 nM.
Turning to `CC[C@H](C)[C@H](NC(=O)[C@H](CC(=O)O)NC(=O)[C@H](CC(C)C)NC(=O)[C@H](N)C1c2ccccc2Sc2ccccc21)C(=O)N[C@H](C(=O)N[C@@H](Cc1c[nH]c2ccccc12)C(=O)O)[C@@H](C)CC` [Example 13, D-Txg-Leu-Asp-Ile-Ile-Trp] (HELM PEPTIDE1{[N[C@@H](C(=O)[*:2])C1c2ccccc2Sc2ccccc21].L.D.I.I.W}$$$$V2.0), the IC50 stood at 830 nM in assay [1], 380 nM in assay [2], 320 nM in assay [3] and 2400 nM in assay [4].
`CC[C@H](C)[C@H](NC(=O)[C@H](CC(=O)O)NC(=O)[C@H](CCCN=C(N)N)NC(=O)[C@H](NC(C)=O)C1c2ccccc2CCc2ccccc21)C(=O)N[C@H](C(=O)N[C@@H](Cc1c[nH]c2ccccc12)C(=O)O)[C@@H](C)CC` [Example 14, Ac-D-Bhg-Arg-ASp-Ile-Ile-Trp] (HELM PEPTIDE1{[ac].[O=C([C@H](N[*:1])C1c2ccccc2CCc2ccccc21)[*:2]].R.D.I.I.W}$$$$V2.0): the IC50 in assay [2] turned out to be 40 nM.
On the same count and under the same terms, as for `CC[C@H](C)[C@H](NC(=O)[C@@H](NC(=O)[C@H](CC(=O)O)N(C)C(=O)[C@H](CC(C)C)NC(=O)[C@H](NC(C)=O)C1c2ccccc2CCc2ccccc21)[C@@H](C)CC)C(=O)N[C@@H](Cc1c[nH]c2ccccc12)C(=O)O` [Example 15, Ac-D-Bhg-Leu-N-MeAsp-Ile-Ile-Trp] (HELM PEPTIDE1{[ac].[O=C([C@H](N[*:1])C1c2ccccc2CCc2ccccc21)[*:2]].L.[meD].I.I.W}$$$$V2.0), the figure is 1900 nM.
For the compound `CC[C@H](C)[C@H](NC(=O)[C@H](Cc1ccccc1)NC(=O)[C@H](CC(=O)O)NC(=O)[C@H](CC(C)C)NC(=O)[C@H](NC(C)=O)C1c2ccccc2CCc2ccccc21)C(=O)N[C@@H](Cc1c[nH]c2ccccc12)C(=O)O` [Example 17, Ac-D-Bhg-Leu-Asp-Phe-Ile-Trp] (HELM PEPTIDE1{[ac].[O=C([C@H](N[*:1])C1c2ccccc2CCc2ccccc21)[*:2]].L.D.F.I.W}$$$$V2.0), the results for the IC50 in assay [1] and in assay [2] were 68 nM and 30 nM, respectively.
Taken in the same sequence, the figures for `CC[C@H](C)[C@H](NC(=O)[C@H](CC(=O)O)NC(=O)[C@H](CCCNC(=N)N)NC(=O)[C@H](NC(C)=O)C1c2ccccc2CCc2ccccc21)C(=O)N[C@H](C(=O)N[C@@H](Cc1cn(C=O)c2ccccc12)C(=O)O)[C@@H](C)CC` [Example 18, Ac-D-Bhg-Arg-Asp-Ile-Ile-Trp(For)] (Ac-[dGly(5-dibenzosuberyl)]RDIIW(For)-OH) were 79 nM and 4900 nM.
